Each block holds one molecule with its values, some of them ahead of it.
Key:
β-Glucuronidase = β-Glucuronidase hydrolysis of the glucuronide mixture obtained from jejunum microsomes; assay type: in vitro ADME; conditions: for Outcome of β-glucuronidase hydrolysis: after hydrolyzing for 18 h
human jejunum microsomes = assay: Incubation with human jejunum microsomes supplemented with UDPGA; assay type: in vitro ADME; conditions: No hydrolysis; after 2 hr incubation of human jejunum microsomes with 50 μM Compound 6A + UDPGA
Hyperlipidemic Hamster = assay: In Vivo Assay of Hypolipidemic Agents Using the Hyperlipidemic Hamster; conditions: oral gavage once daily, 7 days, percent change versus control; for % Reduction in Plasma Cholesterol: cholesterol diet, negative = lowering; for % Reduction in Cholesterol Esters: hepatic cholesterol esters
Protocol: In Vivo Assay of Hypolipidemic Agents Using the Hyperlipidemic Hamster
Hamsters are separated into groups of six and given a controlled cholesterol diet (Purina Chow #5001 containing 0.5% cholesterol) for seven days. Diet consumption is monitored to determine dietary cholesterol exposure in the presence of test compounds. The animals are dosed with the test compound once daily beginning with the initiation of diet. Dosing is by oral gavage of 0.2 mL of corn oil alone (control group) or solution (or suspension) of test compound in corn oil. All animals moribund or in poor physical condition are euthanized. After seven days, the animals are anesthetized by IM injection of ketamine and sacrificed by decapitation. Blood is collected into Vacutainer™ tubes containing EDTA for plasma total cholesterol and triglyceride analysis and the liver excised for free and esterified cholesterol and triglyceride tissue analysis. Data is reported as percent reduction of plasma cholesterol and hepatic cholesterol esters versus control levels.
Data is reported as percent change (i.e., percent reduction in plasma cholesterol and in hepatic cholesterol esters) versus control, therefore, negative numbers indicate a positive cholesterol-lowering effect.

- % of Compound 6A (β-Glucuronidase; Control: 180 min, No microsomes, No UDPGA): 72.92%
- % of Compound 6A (β-Glucuronidase; hydrolysis time 5 min): 68.10%
- % of Compound 6A (β-Glucuronidase; hydrolysis time 10 min): 61.88%
- % of Compound 6A (β-Glucuronidase; hydrolysis time 20 min): 66.02%
- % of Compound 6A (β-Glucuronidase; hydrolysis time 30 min): 80.14%
- % of Compound 6A (β-Glucuronidase; hydrolysis time 180 min): 84.67%
- % of Compound 6A (human jejunum microsomes): 32.06%
Compound: O=C1[C@H](CC[C@H](O)c2ccc(F)cc2)[C@@H](c2ccc(O)cc2)N1c1ccc(F)cc1 [Compound 6A, ezetimibe]
- % Reduction in Plasma Cholesterol (Hyperlipidemic Hamster; dose 1 mg/kg): −59%
- % Reduction in Cholesterol Esters (Hyperlipidemic Hamster; dose 1 mg/kg): −95%

- % of Compound III (Benzylic Glucuronide) (β-Glucuronidase; hydrolysis time 5 min): 19.30%
- % of Compound III (Benzylic Glucuronide) (β-Glucuronidase; hydrolysis time 10 min): 18.58%
- % of Compound III (Benzylic Glucuronide) (β-Glucuronidase; hydrolysis time 20 min): 15.12%
- % of Compound III (Benzylic Glucuronide) (β-Glucuronidase; hydrolysis time 30 min): 11.22%
- % of Compound III (Benzylic Glucuronide) (β-Glucuronidase; hydrolysis time 180 min): 6.5%
- % of Compound III (Benzylic Glucuronide) (human jejunum microsomes): 32.14%
Compound: O=C(O)C1OC(O[C@@H](CCC2C(=O)N(c3ccc(F)cc3)C2c2ccc(O)cc2)c2ccc(F)cc2)[C@H](O)[C@@H](O)[C@@H]1O (some centres unmarked) [Compound III]
- Outcome of β-glucuronidase hydrolysis (β-Glucuronidase): hydrolyzed to form a single Compound 6A peak

- % of Example 1 (Phenolic Glucuronide) (β-Glucuronidase; hydrolysis time 5 min): 2.23%
- % of Example 1 (Phenolic Glucuronide) (β-Glucuronidase; hydrolysis time 10 min): 1.04%
- % of Example 1 (Phenolic Glucuronide) (β-Glucuronidase; hydrolysis time 20 min): 0.77%
- % of Example 1 (Phenolic Glucuronide) (β-Glucuronidase; hydrolysis time 30 min): 0%
- % of Example 1 (Phenolic Glucuronide) (β-Glucuronidase; hydrolysis time 180 min): 0%
- % of Example 1 (Phenolic Glucuronide) (human jejunum microsomes): 31.68%
Compound: O=C(O)[C@H]1O[C@@H](Oc2ccc([C@@H]3[C@@H](CC[C@H](O)c4ccc(F)cc4)C(=O)N3c3ccc(F)cc3)cc2)[C@H](O)[C@@H](O)[C@@H]1O [Example 1]
- Relative rate of β-glucuronidase hydrolysis (β-Glucuronidase; 5, 10, 20, 30 and 180 min): hydrolyzed at a faster rate than Compound III
- Outcome of β-glucuronidase hydrolysis (β-Glucuronidase): hydrolyzed to form a single Compound 6A peak
- % Reduction in Plasma Cholesterol (Hyperlipidemic Hamster; dose 3 mg/kg): −58%
- % Reduction in Cholesterol Esters (Hyperlipidemic Hamster; dose 3 mg/kg): −95%
